Where a SMILES comes first, the peptide text is derived from it. Bridges are numbered along the chain shown (N, C = ends). [ ]: non-standard residue; d: D form. The star is where a group is joined. hPhe(3,5-F2-4-CF3) = N[C@@H](CCc1cc(F)c(C(F)(F)F)c(F)c1)C(=O)O; NPrPhe(4-CF3) = CCCN[C@@H](Cc1ccc(C(F)(F)F)cc1)C(=O)O; NMeAbu(4,4,4-F3) = CN[C@@H](CC(F)(F)F)C(=O)O; NMeGly(cPent) = CN[C@H](C(=O)O)C1CCCC1; Ac4c(3,3-F2) = NC1(C(=O)O)CC(F)(F)C1; αMeCha = C[C@](N)(CC1CCCCC1)C(=O)O; Nva(3-Et) = CCC(CC)[C@H](N)C(=O)O; NMeD = CN[C@@H](CC(=O)O)C(=O)O; Ac4c(3-oxa) = NC1(C(=O)O)COC1; NMeL = CN[C@@H](CC(C)C)C(=O)O; Morpholide = C1CN(*)CCO1; Ac5c = NC1(C(=O)O)CCCC1; Sar = CNCC(=O)O
Legend:
[1] = biological target: GDP-bound KRAS wild-type protein (Homo sapiens, UniProt P01116); assay: Binding to KRAS by surface plasmon resonance (SPR), Single Cycle Kinetics; conditions: SPR Single Cycle Kinetics, GDP-bound KRAS wild-type protein, 1:1 binding model; read-out: KRAS KD
Chain of GDP-bound KRAS wild-type protein (P01116 whole entry): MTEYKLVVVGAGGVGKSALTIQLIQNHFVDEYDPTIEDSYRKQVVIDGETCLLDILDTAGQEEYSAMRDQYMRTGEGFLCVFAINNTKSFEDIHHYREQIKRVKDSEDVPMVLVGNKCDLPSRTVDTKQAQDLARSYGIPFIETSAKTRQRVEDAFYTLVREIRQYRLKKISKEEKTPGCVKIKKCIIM

[2] = biological target: GDP-bound NRAS wild-type protein (Homo sapiens, UniProt P01111); assay: Binding to NRAS by surface plasmon resonance (SPR), Single Cycle Kinetics; conditions: SPR, GDP-bound NRAS wild-type protein vs GDP-bound KRAS wild-type protein
Chain of GDP-bound NRAS wild-type protein (P01111 whole entry): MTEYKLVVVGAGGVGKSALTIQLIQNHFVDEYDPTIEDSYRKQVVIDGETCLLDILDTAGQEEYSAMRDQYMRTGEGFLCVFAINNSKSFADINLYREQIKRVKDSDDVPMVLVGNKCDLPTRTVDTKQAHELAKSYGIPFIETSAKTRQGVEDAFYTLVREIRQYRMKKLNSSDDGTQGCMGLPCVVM

[3] = biological target: GDP-bound HRAS wild-type protein (Homo sapiens, UniProt P01112); assay: Binding to HRAS by surface plasmon resonance (SPR), Single Cycle Kinetics; conditions: SPR, GDP-bound HRAS wild-type protein vs GDP-bound KRAS wild-type protein
Chain of GDP-bound HRAS wild-type protein (P01112 whole entry): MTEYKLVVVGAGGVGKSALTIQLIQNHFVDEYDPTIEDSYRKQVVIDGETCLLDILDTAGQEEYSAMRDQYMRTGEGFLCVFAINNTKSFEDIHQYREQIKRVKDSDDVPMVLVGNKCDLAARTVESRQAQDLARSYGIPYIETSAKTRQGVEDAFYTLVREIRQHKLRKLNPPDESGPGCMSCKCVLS

SMILES	Kd [1] [nM]	NRAS/KRAS (ratio of KD value with respect to NRAS to KD value with respect to KRAS) [2]	HRAS/KRAS (ratio of KD value with respect to HRAS to KD value with respect to KRAS) [3]
CCCN1C(=O)CN(C)C(=O)CN(C)C(=O)[C@H]([C@@H](C)CC)NC(=O)[C@H](CC(C)C)N(C)C(=O)C[C@@H](C(=O)N2CCOCC2)N(C)C(=O)[C@H](C2CCCC2)N(C)C(=O)[C@](C)(CC2CCCCC2)NC(=O)[C@@H]2CCCN2C(=O)[C@H](CCc2cc(F)c(C(F)(F)F)c(F)c2)NC(=O)CN(C)C(=O)[C@@H]1Cc1ccc(C(F)(F)F)cc1 [PP0760] ([NMeL]I[Sar][Sar][NPrPhe(4-CF3)][Sar][hPhe(3,5-F2-4-CF3)]P[αMeCha][NMeGly(cPent)][NMeD]-Morpholide; lactam N-11)	16	B (a compound having 3 or more and less than 10 is denoted as B)	C (A compound having a KD ratio of 0.1 or more and less than 3 is denoted as C)
CCCN1C(=O)CN(C)C(=O)CN(C)C(=O)[C@H]([C@@H](C)CC)NC(=O)[C@H](CC(C)C)N(C)C(=O)C[C@@H](C(=O)N2CCOCC2)N(C)C(=O)[C@H](CC(F)(F)F)N(C)C(=O)C2(CCCC2)NC(=O)[C@@H]2CCCN2C(=O)[C@H](CCc2cc(F)c(C(F)(F)F)c(F)c2)NC(=O)CN(C)C(=O)[C@@H]1Cc1ccc(C(F)(F)F)cc1 [PP0767] ([NMeL]I[Sar][Sar][NPrPhe(4-CF3)][Sar][hPhe(3,5-F2-4-CF3)]P[Ac5c][NMeAbu(4,4,4-F3)][NMeD]-Morpholide; lactam N-11)	1.9	B (a compound having 3 or more and less than 10 is denoted as B)	C (A compound having a KD ratio of 0.1 or more and less than 3 is denoted as C)
CCCN1C(=O)CN(C)C(=O)CN(C)C(=O)[C@H](C(CC)CC)NC(=O)[C@H](CC(C)C)N(C)C(=O)C[C@@H](C(=O)N2CCOCC2)N(C)C(=O)[C@H](C2CCCC2)N(C)C(=O)C2(CCCC2)NC(=O)[C@@H]2CCCN2C(=O)[C@H](CCc2cc(F)c(C(F)(F)F)c(F)c2)NC(=O)CN(C)C(=O)[C@@H]1Cc1ccc(C(F)(F)F)cc1 [PP0768] ([NMeL][Nva(3-Et)][Sar][Sar][NPrPhe(4-CF3)][Sar][hPhe(3,5-F2-4-CF3)]P[Ac5c][NMeGly(cPent)][NMeD]-Morpholide; lactam N-11)	0.97	B (a compound having 3 or more and less than 10 is denoted as B)	C (A compound having a KD ratio of 0.1 or more and less than 3 is denoted as C)

The next compounds have a lower Kd [1] than those just listed; values first:

Kd [1] [nM]	SMILES	NRAS/KRAS (ratio of KD value with respect to NRAS to KD value with respect to KRAS) [2]	HRAS/KRAS (ratio of KD value with respect to HRAS to KD value with respect to KRAS) [3]
0.31	CCCN1C(=O)CN(C)C(=O)CN(C)C(=O)[C@H]([C@@H](C)CC)NC(=O)[C@H](CC(C)C)N(C)C(=O)C[C@@H](C(=O)N2CCOCC2)N(C)C(=O)[C@H](C2CCCC2)N(C)C(=O)C2(COC2)NC(=O)[C@@H]2CCCN2C(=O)[C@H](CCc2cc(F)c(C(F)(F)F)c(F)c2)NC(=O)CN(C)C(=O)[C@@H]1Cc1ccc(C(F)(F)F)cc1 [PP0765] ([NMeL]I[Sar][Sar][NPrPhe(4-CF3)][Sar][hPhe(3,5-F2-4-CF3)]P[Ac4c(3-oxa)][NMeGly(cPent)][NMeD]-Morpholide; lactam N-11)	B (a compound having 3 or more and less than 10 is denoted as B)	C (A compound having a KD ratio of 0.1 or more and less than 3 is denoted as C)
0.096	CCCN1C(=O)CN(C)C(=O)CN(C)C(=O)[C@H]([C@@H](C)CC)NC(=O)[C@H](CC(C)C)N(C)C(=O)C[C@@H](C(=O)N2CCOCC2)N(C)C(=O)[C@H](C2CCCC2)N(C)C(=O)C2(CC(F)(F)C2)NC(=O)[C@@H]2CCCN2C(=O)[C@H](CCc2cc(F)c(C(F)(F)F)c(F)c2)NC(=O)CN(C)C(=O)[C@@H]1Cc1ccc(C(F)(F)F)cc1 [PP0766] ([NMeL]I[Sar][Sar][NPrPhe(4-CF3)][Sar][hPhe(3,5-F2-4-CF3)]P[Ac4c(3,3-F2)][NMeGly(cPent)][NMeD]-Morpholide; lactam N-11)	B (a compound having 3 or more and less than 10 is denoted as B)	B (a compound having 3 or more and less than 10 is denoted as B)

Reference: patent US20240158446A1, “CYCLIC COMPOUND HAVING SELECTIVE INHIBITORY ACTION ON KRAS OVER HRAS AND NRAS” (CHUGAI SEIYAKU KABUSHIKI KAISHA, priority 2021, published 2024)
